Reference: PubChem BioAssay AID1259407 (Chemical Carcinogenesis Research Information System (CCRIS), 2018)
Active and inactive are the calls of the source. No rule for the calls is given here.

Tested on: CCRIS mutagenicity, Ames/micronucleus/aberration tests
Experiment: CCRIS mutagenicity studies

## COc1ccc(N)cc1
End Point: IN VITRO CHROMOSOMAL ABERRATIONS, Test System: CHINESE HAMSTER OVARY CELLS, Metabolic Activation: NONE
  mutagenic call: active; positive
End Point: IN VITRO CHROMOSOMAL ABERRATIONS, Test System: CHINESE HAMSTER OVARY CELLS, Metabolic Activation: RAT, LIVER, S-9, AROCLOR 1254
  mutagenic call: active; positive
End Point: MORPHOLOGICAL TRANSFORMATION, Test System: SYRIAN HAMSTER EMBRYO CELLS (SHE), Metabolic Activation: NONE
  mutagenic call: active; positive
Test System: AMES SALMONELLA TYPHIMURIUM, Strain/Indicator: TA98, Metabolic Activation: HAMSTER, LIVER, S-9, AROCLOR 1254 (30%), Method: PREINCUBATION
  mutagenic call: inactive; negative
Test System: AMES SALMONELLA TYPHIMURIUM, Strain/Indicator: TA98, Metabolic Activation: HAMSTER, LIVER, S-9, AROCLOR 1254, Method: STANDARD PLATE
  mutagenic call: inactive; negative
Test System: AMES SALMONELLA TYPHIMURIUM, Strain/Indicator: TA98, Metabolic Activation: HAMSTER, LIVER, S-9, Method: STANDARD PLATE
  mutagenic call: inactive; negative
Test System: AMES SALMONELLA TYPHIMURIUM, Strain/Indicator: TA98, Metabolic Activation: MOUSE, LIVER, S-9, AROCLOR 1254, Method: STANDARD PLATE
  mutagenic call: inactive; negative
Test System: AMES SALMONELLA TYPHIMURIUM, Strain/Indicator: TA98, Metabolic Activation: MOUSE, LIVER, S-9, Method: STANDARD PLATE
  mutagenic call: inactive; negative
Test System: AMES SALMONELLA TYPHIMURIUM, Strain/Indicator: TA98, Metabolic Activation: NONE, Method: PREINCUBATION
  mutagenic call: inactive; negative
Test System: AMES SALMONELLA TYPHIMURIUM, Strain/Indicator: TA98, Metabolic Activation: NONE, Method: STANDARD PLATE
  mutagenic call: inactive; negative
Test System: AMES SALMONELLA TYPHIMURIUM, Strain/Indicator: TA98, Metabolic Activation: RAT LIVER S-9, PHENOBARBITAL AND BETA-NAPHTHOFLAVONE, Method: PREINCUBATION
  mutagenic call: inactive; negative
Test System: AMES SALMONELLA TYPHIMURIUM, Strain/Indicator: TA98, Metabolic Activation: RAT, LIVER, S-9, AROCLOR 1254 (30%), Method: PREINCUBATION
  mutagenic call: inactive; negative
Test System: AMES SALMONELLA TYPHIMURIUM, Strain/Indicator: TA98, Metabolic Activation: RAT, LIVER, S-9, AROCLOR 1254, Method: STANDARD PLATE
  mutagenic call: inactive; negative
Test System: AMES SALMONELLA TYPHIMURIUM, Strain/Indicator: TA98, Metabolic Activation: RAT, LIVER, S-9, Method: STANDARD PLATE
  mutagenic call: inactive; negative
Test System: AMES SALMONELLA TYPHIMURIUM, Strain/Indicator: TA100, Metabolic Activation: HAMSTER, LIVER, S-9, AROCLOR 1254 (30%), Method: PREINCUBATION
  mutagenic call: active; positive
Test System: AMES SALMONELLA TYPHIMURIUM, Strain/Indicator: TA100, Metabolic Activation: NONE, Method: PREINCUBATION
  mutagenic call: inactive; negative
Test System: AMES SALMONELLA TYPHIMURIUM, Strain/Indicator: TA100, Metabolic Activation: NONE, Method: STANDARD PLATE
  mutagenic call: inactive; negative
Test System: AMES SALMONELLA TYPHIMURIUM, Strain/Indicator: TA100, Metabolic Activation: RAT LIVER S-9, PHENOBARBITAL AND BETA-NAPHTHOFLAVONE, Method: PREINCUBATION
  mutagenic call: inactive; negative
Test System: AMES SALMONELLA TYPHIMURIUM, Strain/Indicator: TA100, Metabolic Activation: RAT, LIVER, S-9, AROCLOR 1254 (30%), Method: PREINCUBATION
  mutagenic call: inactive; negative
Test System: AMES SALMONELLA TYPHIMURIUM, Strain/Indicator: TA102, Metabolic Activation: NONE, Method: PREINCUBATION
  mutagenic call: inactive; negative
Test System: AMES SALMONELLA TYPHIMURIUM, Strain/Indicator: TA102, Metabolic Activation: NONE, Method: STANDARD PLATE
  mutagenic call: inactive; negative
Test System: AMES SALMONELLA TYPHIMURIUM, Strain/Indicator: TA102, Metabolic Activation: RAT LIVER S-9, PHENOBARBITAL AND BETA-NAPHTHOFLAVONE, Method: PREINCUBATION
  mutagenic call: inactive; negative
Test System: AMES SALMONELLA TYPHIMURIUM, Strain/Indicator: TA104, Metabolic Activation: NONE, Method: PREINCUBATION
  mutagenic call: inactive; negative
Test System: AMES SALMONELLA TYPHIMURIUM, Strain/Indicator: TA104, Metabolic Activation: RAT LIVER S-9, PHENOBARBITAL AND BETA-NAPHTHOFLAVONE, Method: PREINCUBATION
  mutagenic call: inactive; negative
Test System: AMES SALMONELLA TYPHIMURIUM, Strain/Indicator: TA1535, Metabolic Activation: HAMSTER, LIVER, S-9, AROCLOR 1254, Method: STANDARD PLATE
  mutagenic call: inactive; negative
Test System: AMES SALMONELLA TYPHIMURIUM, Strain/Indicator: TA1535, Metabolic Activation: HAMSTER, LIVER, S-9, Method: STANDARD PLATE
  mutagenic call: inactive; negative
Test System: AMES SALMONELLA TYPHIMURIUM, Strain/Indicator: TA1535, Metabolic Activation: MOUSE, LIVER, S-9, AROCLOR 1254, Method: STANDARD PLATE
  mutagenic call: inactive; negative
Test System: AMES SALMONELLA TYPHIMURIUM, Strain/Indicator: TA1535, Metabolic Activation: MOUSE, LIVER, S-9, Method: STANDARD PLATE
  mutagenic call: inactive; negative
Test System: AMES SALMONELLA TYPHIMURIUM, Strain/Indicator: TA1535, Metabolic Activation: NONE, Method: PREINCUBATION
  mutagenic call: inactive; negative
Test System: AMES SALMONELLA TYPHIMURIUM, Strain/Indicator: TA1535, Metabolic Activation: NONE, Method: STANDARD PLATE
  mutagenic call: inactive; negative
Test System: AMES SALMONELLA TYPHIMURIUM, Strain/Indicator: TA1535, Metabolic Activation: RAT LIVER S-9, PHENOBARBITAL AND BETA-NAPHTHOFLAVONE, Method: PREINCUBATION
  mutagenic call: inactive; negative
Test System: AMES SALMONELLA TYPHIMURIUM, Strain/Indicator: TA1535, Metabolic Activation: RAT, LIVER, S-9, AROCLOR 1254, Method: STANDARD PLATE
  mutagenic call: inactive; negative
Test System: AMES SALMONELLA TYPHIMURIUM, Strain/Indicator: TA1535, Metabolic Activation: RAT, LIVER, S-9, Method: STANDARD PLATE
  mutagenic call: inactive; negative
Test System: AMES SALMONELLA TYPHIMURIUM, Strain/Indicator: TA1537, Metabolic Activation: HAMSTER, LIVER, S-9, AROCLOR 1254, Method: STANDARD PLATE
  mutagenic call: inactive; negative
Test System: AMES SALMONELLA TYPHIMURIUM, Strain/Indicator: TA1537, Metabolic Activation: HAMSTER, LIVER, S-9, Method: STANDARD PLATE
  mutagenic call: inactive; negative
Test System: AMES SALMONELLA TYPHIMURIUM, Strain/Indicator: TA1537, Metabolic Activation: MOUSE, LIVER, S-9, AROCLOR 1254, Method: STANDARD PLATE
  mutagenic call: inactive; negative
Test System: AMES SALMONELLA TYPHIMURIUM, Strain/Indicator: TA1537, Metabolic Activation: NONE, Method: PREINCUBATION
  mutagenic call: inactive; negative
Test System: AMES SALMONELLA TYPHIMURIUM, Strain/Indicator: TA1537, Metabolic Activation: NONE, Method: STANDARD PLATE
  mutagenic call: inactive; negative
Test System: AMES SALMONELLA TYPHIMURIUM, Strain/Indicator: TA1537, Metabolic Activation: RAT LIVER S-9, PHENOBARBITAL AND BETA-NAPHTHOFLAVONE, Method: PREINCUBATION
  mutagenic call: inactive; negative
Test System: AMES SALMONELLA TYPHIMURIUM, Strain/Indicator: TA1537, Metabolic Activation: RAT, LIVER, S-9, AROCLOR 1254, Method: STANDARD PLATE
  mutagenic call: inactive; negative
Test System: AMES SALMONELLA TYPHIMURIUM, Strain/Indicator: TA1537, Metabolic Activation: RAT, LIVER, S-9, Method: STANDARD PLATE
  mutagenic call: inactive; negative
Test System: AMES SALMONELLA TYPHIMURIUM, Strain/Indicator: TA1538, Metabolic Activation: HAMSTER, LIVER, S-9, AROCLOR 1254, Method: STANDARD PLATE
  mutagenic call: inactive; negative
Test System: AMES SALMONELLA TYPHIMURIUM, Strain/Indicator: TA1538, Metabolic Activation: HAMSTER, LIVER, S-9, Method: STANDARD PLATE
  mutagenic call: inactive; negative
Test System: AMES SALMONELLA TYPHIMURIUM, Strain/Indicator: TA1538, Metabolic Activation: MOUSE, LIVER, S-9, AROCLOR 1254, Method: STANDARD PLATE
  mutagenic call: inactive; negative
Test System: AMES SALMONELLA TYPHIMURIUM, Strain/Indicator: TA1538, Metabolic Activation: MOUSE, LIVER, S-9, Method: STANDARD PLATE
  mutagenic call: inactive; negative
Test System: AMES SALMONELLA TYPHIMURIUM, Strain/Indicator: TA1538, Metabolic Activation: NONE, Method: STANDARD PLATE
  mutagenic call: inactive; negative
Test System: AMES SALMONELLA TYPHIMURIUM, Strain/Indicator: TA1538, Metabolic Activation: RAT, LIVER, S-9, AROCLOR 1254, Method: STANDARD PLATE
  mutagenic call: inactive; negative
Test System: AMES SALMONELLA TYPHIMURIUM, Strain/Indicator: TA1538, Metabolic Activation: RAT, LIVER, S-9, Method: STANDARD PLATE
  mutagenic call: inactive; negative
Test System: AMES SALMONELLA TYPHIMURIUM, Strain/Indicator: TA2638, Metabolic Activation: NONE, Method: STANDARD PLATE
  mutagenic call: inactive; negative
Test System: AMES SALMONELLA TYPHIMURIUM, Strain/Indicator: YG1029, Metabolic Activation: HAMSTER, LIVER, S-9, Method: PREINCUBATION
  mutagenic call: active; positive
Test System: AMES SALMONELLA TYPHIMURIUM, Strain/Indicator: YG1029, Metabolic Activation: NONE, Method: PREINCUBATION
  mutagenic call: active; positive
Test System: AMES SALMONELLA TYPHIMURIUM, Strain/Indicator: YG1029, Metabolic Activation: RAT, SEMINAL VESICLE, MICROSOMES, Method: PREINCUBATION
  mutagenic call: active; positive
Test System: E. COLI, Strain/Indicator: WP2 (PKM101), Metabolic Activation: NONE, Method: STANDARD PLATE
  mutagenic call: inactive; negative
Test System: E. COLI, Strain/Indicator: WP2 UVRA (PKM101), Metabolic Activation: NONE, Method: STANDARD PLATE
  mutagenic call: active; positive
Test System: E. COLI, Strain/Indicator: WP2 UVRA, Metabolic Activation: HAMSTER, LIVER, S-9, AROCLOR 1254, Method: STANDARD PLATE
  mutagenic call: inactive; negative
Test System: E. COLI, Strain/Indicator: WP2 UVRA, Metabolic Activation: HAMSTER, LIVER, S-9, Method: STANDARD PLATE
  mutagenic call: inactive; negative
Test System: E. COLI, Strain/Indicator: WP2 UVRA, Metabolic Activation: MOUSE, LIVER, S-9, AROCLOR 1254, Method: STANDARD PLATE
  mutagenic call: inactive; negative
Test System: E. COLI, Strain/Indicator: WP2 UVRA, Metabolic Activation: MOUSE, LIVER, S-9, Method: STANDARD PLATE
  mutagenic call: inactive; negative
Test System: E. COLI, Strain/Indicator: WP2 UVRA, Metabolic Activation: NONE, Method: STANDARD PLATE
  mutagenic call: inactive; negative
Test System: E. COLI, Strain/Indicator: WP2 UVRA, Metabolic Activation: RAT, LIVER, S-9, AROCLOR 1254, Method: STANDARD PLATE
  mutagenic call: inactive; negative
Test System: E. COLI, Strain/Indicator: WP2 UVRA, Metabolic Activation: RAT, LIVER, S-9, Method: STANDARD PLATE
  mutagenic call: inactive; negative
Test System: E.COLI, Strain/Indicator: WP2UVRA/PKM101, Metabolic Activation: RAT LIVER S-9, PHENOBARBITAL AND BETA-NAPHTHOFLAVONE, Method: PREINCUBATION
  mutagenic call: inactive; negative
Test System: E.COLI, Strain/Indicator: WP2UVRA, Metabolic Activation: NONE, Method: PREINCUBATION
  mutagenic call: inactive; negative
Test System: MOUSE LYMPHOMA, Strain/Indicator: L5178Y (TK+/TK-), Metabolic Activation: NONE, Method: SUSPENSION/PLATE
  mutagenic call: active; positive
Test System: MOUSE LYMPHOMA, Strain/Indicator: L5178Y (TK+/TK-), Metabolic Activation: RAT, LIVER, S-9, AROCLOR 1254, Method: SUSPENSION/PLATE
  mutagenic call: active; positive
